Experimental data taken from patent US11202792B2, “CD99 inhibitors and their uses” (GEORGETOWN UNIVERSITY, priority 2016, dated 2021).
Like-named read-outs stand apart in the source and are kept apart here.

What was measured:
TC-71 ES cells = test: Cell viability IC50, TC-71; type: cell-based, human; settings: for IC50: Homo sapiens; for Fold changes in IC50: TC-71 parental cells, mean ± SD
[1] = system: RD18 rhabdomyosarcoma cells; test: Cell viability IC50, RD18; type: cell-based; settings: Homo sapiens, RD18 (RM)
Protocol: (§1) The plate was installed into the RTCA system, and the electrical impedance (represented as cell index) was measured every 10 min.
(§2) To investigate the relationship between the level of CD99 expression and drug sensitivity, the endogenous expression of CD99 was determined in a panel of 9 ES and 13 non-ES cell lines. The recombinant purified CD99-ECD protein was used to generate standard curves for immunoquantification of CD99 expression by immunoblotting (FIGS. 6B and 6C).

TC-CD99-shRNA #1 cells = settings: mean ± SD
Protocol: as §1
(§3) TC-CD99-shRNA clones (TC-CD99-shRNA #1 and TC-CD99-shRNA #2) were established after selection in neomycin (500 μg/ml) (Sigma-Aldrich). The expression of DCK and CD99 was suppressed transiently by using a validated small interfering RNA (siRNA) duplexes targeting coding region (Invitrogen (Carlsbad, Calif.); #s186 and #s8768, respectively). Silencer™ Select Negative Control No. 2 siRNA (Invitrogen) was used as the control. Cells were transfected with DCK or CD99 or control siRNA oligonucleotides using X-tremeGene siRNA transfection reagent (Roche Diagnostics (Basel, Switzerland)) according to the manufacturer's protocol. The cells were analyzed for DCK and CD99 knockdown after 45 or 72 h by immunoblotting.
(§4) Two stable transfectants of TC-71 cell line, TC-CD99-shRNA #1 and TC-CD99-shRNA #2, were generated by using plasmids expressing either a shRNA targeting the 3′ untranslated region (UTR) of CD99 or a scrambled shRNA control.

TC-CD99-shRNA #2 cells = settings: mean ± SD
Protocol: as §1, §3, §4

SKES-1 ES cells = test: Cell viability IC50, SKES-1; type: cell-based; settings: Homo sapiens, SK-ES1
Protocol: as §1, §2

IOR/OS20 OS cells = test: Cell viability IC50, IOR/OS20; type: cell-based; settings: Homo sapiens
Protocol: as §1, §2

IOR/OS14 OS cells = test: Cell viability IC50, IOR/OS14; type: cell-based; settings: Homo sapiens
Protocol: as §1, §2

IOR/OS10 OS cells = test: Cell viability IC50, IOR/OS10; type: cell-based; settings: Homo sapiens
Protocol: as §1, §2

SAOS-2 OS cells = test: Cell viability IC50, SAOS-2; type: cell-based; settings: Homo sapiens
Protocol: as §1, §2

TC-71 xenografts = test: Orthotopic TC-71 xenograft, i.p. administration; type: in vivo, SCID/beige mice; settings: clofarabine 30 mg/kg, cladribine 20 mg/kg; for event-free survival: i.p. once daily 14 days, vs vehicle; for tumor growth: i.p.
Protocol: The antitumor activity of drugs through intraperitoneal (i.p.) administration given once daily was determined. […] The in vivo potencies of drug treatments were evaluated by event-free survival curves, where tumors that reached 1.0 cm^3 in size considered an event.

[2] = system: TC-71, 6647 and RDES ES cells; test: Soft agar colony formation assay, ES cells; type: cell-based, human; settings: dose-dependent
Protocol: Anchorage-independent growth was determined in 0.33% agarose (Sea-Plaque Agarose, Lonza) with a 0.5% agarose underlay. […] Colonies were counted after 7-12 days.

[3] = system: ROCK2 expression in RDES, 6647, IOR/CAR and TC-71 ES cells; test: ROCK2 expression by immunoblot in ES cells; type: cell-based, human; settings: 24 h, vs DMSO-treated control cells
Protocol: Immunoblot analysis was performed on total cell lysates for ROCK2 and GAPDH expression. In FIG. 8B, TC-71 control and TC-CD99-shRNA #2 cells were treated with either drug at indicated concentrations for 1, 3 and 6 h. Immunoblot analysis was performed on total cell lysates for ROCK2 and GAPDH expression. In FIG. 8C, cell migration experiments were performed using Boyden chamber transwell migration assay with 10% serum serving as the chemoattractant in the lower chamber. […] The number of migrated cells was then quantified by counting the cells in the bottom chamber under the microscope. Asterisks indicate statistically significant differences between treatments (*p<0.05; vs. control using a Student's unpaired t test). […]

6647 and TC-71 ES cells = test: Transwell cell migration assay; type: cell-based, human; settings: 24 h pre-treatment; cladribine 1 or 3 μmol/L, clofarabine 0.3 or 0.5 μmol/L
Protocol: Immunoblot analysis was performed on total cell lysates for ROCK2 and GAPDH expression. In FIG. 8B, TC-71 control and TC-CD99-shRNA #2 cells were treated with either drug at indicated concentrations for 1, 3 and 6 h. Immunoblot analysis was performed on total cell lysates for ROCK2 and GAPDH expression. In FIG. 8C, cell migration experiments were performed using Boyden chamber transwell migration assay with 10% serum serving as the chemoattractant in the lower chamber. […] The number of migrated cells was then quantified by counting the cells in the bottom chamber under the microscope. Asterisks indicate statistically significant differences between treatments (*p<0.05; vs. control using a Student's unpaired t test).
Motility assay was done using Trans-well chambers (Costar; Corning (Corning, N.Y.)) according to manufacturer's instructions.

Row | Structure (SMILES) | IC50 (TC-71 ES cells; TC-71 (ES), Table 1) [µM] | Fold changes in IC50 (TC-71 ES cells) | IC50 [1] [µM] | Fold changes in IC50 compared with TC-71 parental cells (TC-CD99-shRNA #1 cells) | Fold changes in IC50 compared with TC-71 parental cells (TC-CD99-shRNA #2 cells) | IC50 (SKES-1 ES cells) [µM] | IC50 (IOR/OS20 OS cells) [µM] | IC50 (IOR/OS14 OS cells) [µM] | IC50 (IOR/OS10 OS cells) [µM] | IC50 (SAOS-2 OS cells) [µM] | event-free survival (TC-71 xenografts) | tumor growth (TC-71 xenografts) | colony formation (anchorage-independent growth) [2] | ROCK2 expression [3] | number of migrated cells (6647 and TC-71 ES cells) | further results
1 | Nc1nc(Cl)nc2c1ncn2[C@H]1C[C@H](O)[C@@H](CO)O1 [cladribine] | 0.5 | 1.02 ± 0.27 (n = 5) | 3.67 | 2.85 | 2.35 | 0.43 | > 30 | > 30 | 11.4 | > 30 | significantly different | grew slower | significantly inhibited | notable decrease | significantly decreased | Fold changes in IC50 compared with TC-71 parental cells (TC-CD99-shRNA #1 cells; listed as Cladribine): 2.85 ± 1.13 (n = 4); Fold changes in IC50 compared with TC-71 parental cells (TC-CD99-shRNA #2 cells; listed as Cladribine): 2.35 ± 1.43 (n = 2)
2 | Nc1nc(Cl)nc2c1ncn2[C@@H]1O[C@H](CO)[C@@H](O)[C@@H]1F [clofarabine] | 0.15 | 1.10 ± 0.38 (n = 8) | 0.97 | 3.70 | 1.63 | 0.3 | > 10 | > 10 | 1.37 | > 30 | not statistically significant | significant inhibition of tumor growth | significantly inhibited | notable decrease | significantly decreased | IC50 (TC-71 ES cells; TC-71 cells, WST-1, 48 h (FIG. 10B)): 0.15 µM; Fold changes in IC50 compared with TC-71 parental cells (TC-CD99-shRNA #1 cells; listed as Clofarabine): 3.70 ± 2.98 (n = 5); Fold changes in IC50 compared with TC-71 parental cells (TC-CD99-shRNA #2 cells; listed as Clofarabine): 1.63 ± 0.54 (n = 5); event-free survival (TC-71 xenografts; listed as Clofarabine): significantly improved
